Measured values from PubChem BioAssay (NCI).
Where “and” joins values, the source holds several entries; their conditions need not be identical. Identical values can stand only once.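 Exposure lasted 48 hours, with cells grown in 96-well plates and compounds tested at five concentrations. The concentration for 50% growth inhibition is given as GI50. TGI is the concentration that stops growth completely.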

Legend:
Test in all cases: inhibition of tumour cell growth, NCI panel, 48 h
[1] = tested on: HCC-2998 colon
[2] = tested on: HOP-62 NSCLC
[3] = tested on: HT29 colon
[4] = tested on: MCF7 breast
[5] = tested on: MDA-MB-435
[6] = tested on: NCI-H226 lung
[7] = tested on: NCI-H460 lung
[8] = tested on: RXF 393 renal

| Compound | GI50 [1] | TGI [1] | GI50 [2] | TGI [2] | GI50 [3] | TGI [3] | GI50 [4] | TGI [4] | GI50 [5] | TGI [5] | GI50 [6] | TGI [6] | GI50 [7] | TGI [7] | GI50 [8] | TGI [8] |
| --- | --- | --- | --- | --- | --- | --- | --- | --- | --- | --- | --- | --- | --- | --- | --- | --- |
| C/C=C(\C)C(=O)N[C@H]1[C@@H](OC(C)=O)C[C@]2(C)C3CC[C@@]4(C)C(CC[C@@H]4C(C)N(C)C)C3CCC2[C@H]1O (stereo not given in full) | 7150 nM | 21.7 µM | 3420 nM | 9.29 µM | 738 nM | 6.55 µM | 3710 nM | 18.1 µM | 2270 nM | 6.78 µM | 5.53 µM | 22 µM | 2180 nM | 5.8 µM | 1710 nM | 14.4 µM |
| C=C1CC[C@@]2(C#N)[C@H]3[C@H](CC[C@@H]2C)[C@@H](C)C[C@@H](CC(C)(C)C#N)[C@H]13 | 2950 nM | 20.6 µM | 2330 nM | 24.3 µM | 469 nM | 16.1 µM | 785 nM | 15.8 µM | 2060 nM | 95.7 µM | 2.43 µM | 24.1 µM | 877 nM | 12.8 µM | 5850 nM | 22.8 µM |
| O=[N+]([O-])c1ccc(-c2nc(N(CCO)CCO)c3ccccc3n2)o1 | 194 nM | 0.442 µM | 145 nM | 0.671 µM | 184 nM | 3.07 µM | 41.9 nM | 0.397 µM | 309 nM | 1.27 µM | 0.216 µM | 1.05 µM | 53.7 nM | 0.38 µM | 159 nM | 0.34 µM |
| O=C1/C(=C/c2ccc(O)c([N+](=O)[O-])c2)CCC/C1=C\c1ccc(O)c([N+](=O)[O-])c1 | – | 16 µM | 25000 nM | 28 µM and > 100 µM | 19000 nM | 30.7 µM and 37.6 µM | 15800 nM | 50 µM and 63 µM | 1530 nM | 21.3 µM and 5.35 µM | 33.7 µM | 24.7 µM and > 100 µM | – | 31.6 µM | 1530 nM | 19.6 µM and 5.91 µM |
| C[C@]12CC[C@H](O)CC1=CC[C@@H]1C2CC[C@]2(C)c3nn(-c4ccc(F)cc4)nc3CC12 (stereo not given in full) | – | 72.7 µM | – | > 100 µM | – | 73 µM | – | > 100 µM | – | > 100 µM | – | > 100 µM | – | > 100 µM | – | > 100 µM |
| COc1c(C)c2c(c(O)c1C/C=C(\C)CCC(=O)OCCN1CCOCC1)C(=O)OC2 | 390 nM | > 100 µM | 457 nM | > 100 µM | 552 nM | > 100 µM | 196 nM | > 100 µM | 201 nM | > 100 µM | 0.581 µM | > 100 µM | 82.3 nM | > 100 µM | 774 nM | > 100 µM |
| COc1cc(Cl)cc(-c2nn(C(=O)NCCN3CCN(C)CC3)cc2-c2ccncc2)c1 | 17500 nM | 39.1 µM | 5870 nM | 44.5 µM | 3320 nM | 72.1 µM | 29400 nM | > 100 µM | 10400 nM | 35 µM | 4.29 µM | 57.3 µM | 21000 nM | 60.4 µM | 2410 nM | 18.1 µM |
| N#Cc1ccccc1NC(=O)/C(=N\NC(=O)c1ccncc1)C(c1cnc2ccc([N+](=O)[O-])cc2n1)[N+](=O)[O-] (stereo not given) | – | > 100 µM | – | > 100 µM | – | > 100 µM | – | > 100 µM | – | > 100 µM | – | > 100 µM | – | > 100 µM | – | > 100 µM |
